Holding throughout (assay): relative viability (nuclei count vs DMSO), 5 days (fraction); higher = more cells survive
Compound in the assay “Venetoclax + Palbociclib”: CC1(C)CCC(CN2CCN(c3ccc(C(=O)NS(=O)(=O)c4ccc(NCC5CCOCC5)c([N+](=O)[O-])c4)c(Oc4cnc5[nH]ccc5c4)c3)CC2)=C(c2ccc(Cl)cc2)C1 [Venetoclax] + CC(=O)c1c(C)c2cnc(Nc3ccc(N4CCNCC4)cn3)nc2n(C2CCCC2)c1=O [Palbociclib] (partner 0.5 µM)
In outline:
(§1)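 Lung cancer cell lines, seeded in 1536-well plates, were treated the following day by pin tool with a single drug or with five library-drug doses (not always all listed) in √10 steps on top of a fixed anchor-drug dose. Cells were fixed and nuclei stained in one step after 5 days, and nuclei were counted. Relative viability is the nuclei count for treated wells divided by that for vehicle wells, reported as medians of duplicate plates.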

Compound in the assay “Venetoclax + Luminespib”: CC1(C)CCC(CN2CCN(c3ccc(C(=O)NS(=O)(=O)c4ccc(NCC5CCOCC5)c([N+](=O)[O-])c4)c(Oc4cnc5[nH]ccc5c4)c3)CC2)=C(c2ccc(Cl)cc2)C1 [Venetoclax] + CCNC(=O)c1noc(-c2cc(C(C)C)c(O)cc2O)c1-c1ccc(CN2CCOCC2)cc1 [Luminespib] (partner 0.01 µM)
In outline: as §1

Compound in the assay “Venetoclax + Alpelisib”: CC1(C)CCC(CN2CCN(c3ccc(C(=O)NS(=O)(=O)c4ccc(NCC5CCOCC5)c([N+](=O)[O-])c4)c(Oc4cnc5[nH]ccc5c4)c3)CC2)=C(c2ccc(Cl)cc2)C1 [Venetoclax] + Cc1nc(NC(=O)N2CCC[C@H]2C(N)=O)sc1-c1ccnc(C(C)(C)C(F)(F)F)c1 [Alpelisib] (partner 2 µM)
In outline:
as §1

Compound in the assay “Venetoclax + Phenformin”: CC1(C)CCC(CN2CCN(c3ccc(C(=O)NS(=O)(=O)c4ccc(NCC5CCOCC5)c([N+](=O)[O-])c4)c(Oc4cnc5[nH]ccc5c4)c3)CC2)=C(c2ccc(Cl)cc2)C1 [Venetoclax] + N=C(N)NC(=N)NCCc1ccccc1 [Phenformin] (partner 250 µM)
Put shortly: as §1

Our source for the relative viability values is the supplement of paper PMC10307832.

Take UMC-11: the relative viability with Venetoclax + Palbociclib (first compound 0.01 µM) was found to be 0.37; in the assay with Venetoclax + Palbociclib (first compound 0.03162 µM) it was 0.334; with Venetoclax + Palbociclib (first compound 0.1 µM) it was 0.277; with Venetoclax + Palbociclib (first compound 0.3162 µM) it was 0.304; with Venetoclax + Palbociclib (first compound 1 µM), 0.324; in the assay with Venetoclax + Luminespib (first compound 0.01 µM), 1.06. Further, the relative viability turned out to be 0.987 in the assay with Venetoclax + Luminespib (first compound 0.03162 µM); 1.04 with Venetoclax + Luminespib (first compound 0.1 µM); 1.02 with Venetoclax + Luminespib (first compound 0.3162 µM); 0.882 with Venetoclax + Luminespib (first compound 1 µM); 0.924 in the assay with Venetoclax + Alpelisib (first compound 0.01 µM); 1.05 with Venetoclax + Alpelisib (first compound 0.03162 µM). Further, the relative viability amounted to 0.926 with Venetoclax + Alpelisib (first compound 0.1 µM); 0.923 with Venetoclax + Alpelisib (first compound 0.3162 µM); 0.915 in the assay with Venetoclax + Alpelisib (first compound 1 µM); 0.286 with Venetoclax + Phenformin (first compound 0.01 µM); 0.319 in the assay with Venetoclax + Phenformin (first compound 0.03162 µM); 0.32 with Venetoclax + Phenformin (first compound 0.1 µM). The values for the relative viability with Venetoclax + Phenformin (first compound 0.3162 µM) and in the assay with Venetoclax + Phenformin (first compound 1 µM) were 0.291 and 0.292, respectively.
